Results from US20260001849A1, “NOVEL B0AT1 INHIBITOR” (MITSUBISHI TANABE PHARMA CORPORATION, priority 2023, published 2026).
pIC50: −log10 of the molar value. Like-named read-outs stand apart in the source and are kept apart here.

Experiments:
[1] = molecular target: T1, Human BOAT1 (Homo sapiens, UniProt Q695T7); test: hBOAT1 inhibitory test (phenylalanine uptake); type: cell-based; conditions: Human BOAT1 stable expression CHO cells, phenylalanine 0.25 mM, read-out: hB0AT1 IC50
T1 construct: expressed in transfected cells
T1 sequence (Q695T7 1-634): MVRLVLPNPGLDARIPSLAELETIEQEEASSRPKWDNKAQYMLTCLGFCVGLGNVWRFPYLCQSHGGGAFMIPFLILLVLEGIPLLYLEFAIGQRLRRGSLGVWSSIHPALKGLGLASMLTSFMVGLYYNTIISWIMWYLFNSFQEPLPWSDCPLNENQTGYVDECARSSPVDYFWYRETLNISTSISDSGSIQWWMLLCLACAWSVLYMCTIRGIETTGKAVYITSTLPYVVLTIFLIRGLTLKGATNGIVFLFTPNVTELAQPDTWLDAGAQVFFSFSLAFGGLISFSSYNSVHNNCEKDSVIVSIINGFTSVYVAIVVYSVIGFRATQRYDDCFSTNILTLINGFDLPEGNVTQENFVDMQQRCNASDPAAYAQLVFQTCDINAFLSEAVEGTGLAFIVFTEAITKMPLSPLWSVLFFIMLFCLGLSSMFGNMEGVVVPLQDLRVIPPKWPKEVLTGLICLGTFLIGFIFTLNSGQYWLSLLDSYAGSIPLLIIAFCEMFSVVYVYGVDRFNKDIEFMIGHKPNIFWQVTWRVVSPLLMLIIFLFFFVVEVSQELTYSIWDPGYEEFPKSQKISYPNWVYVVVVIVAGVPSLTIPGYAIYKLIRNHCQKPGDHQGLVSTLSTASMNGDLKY
Description: A test compound dissolved in dimethyl sulfoxide (DMSO) was added to a 96 well plate for solid phase radioactivity measurement containing a scintillator at the bottom of the well (final concentration of DMSO 0.5%). DMSO alone as a control and DMSO containing N-(4-bromophenyl)-3,5-dichloro-2-hydroxybenzamide (final concentration […]) for the measurement of BOAT1 non-specific uptake were similarly added at 0.5 μL per well. Human BOAT1 stable expression CHO cells suspended in a buffer (buffer containing 96 mM sodium chloride, 2 mM potassium chloride, 1.8 mM calcium chloride, 1 mM magnesium chloride, 0.01% bovine serum albumin, and 10 mM 2-[4-(2-hydroxyethyl)-1-piperazinyl]ethanesulfonic acid) were added by 90 μL to 75000 cells/well. After standing at ordinary temperature for 30 min or longer, the cells were subjected to a phenylalanine uptake experiment. A buffer containing L-phenylalanine and [3,4,5-3H]-L-phenylalanine was added by 10 μL per well (final concentration of phenylalanine 0.25 mM), and the radioactivity of the plate bottom surface at ordinary temperature was measured with a scintillation counter over time, and the radioactivity value after 100 to 200 min was analyzed.

[2] = molecular target: T2, hERG channel (Homo sapiens, UniProt Q12809); test: hERG channel inhibitory activity, whole-cell patch clamp (auto-patch clamp system); type: cell-based
T2 construct: host or cells: CHO cells
Description: Evaluation of hERG (Human Ether-a-go-go Related Gene) Channel Inhibitory Activity
The hERG channel inhibitory activity of the compound of the present invention was measured using CHO cells (B′ SYS GmbH) forcibly expressing hERG channels involved in human rapidly active delayed rectifier potassium current (IKr) by the whole-cell patch clamp method using an auto-patch clamp system (SyncroPatch384PE).
Cell suspension, extracellular fluid, intracellular fluid, and measurement plate (NPC-384 plate) were placed in the auto-patch clamp system, and hERG current measurements were performed using the whole-cell patch clamp method. The voltage protocol was set to a holding potential of −80 mV, with a depolarizing pulse preceded by −90 mV (100 ms) and followed by −80 mV (100 ms).
The depolarizing pulse was […] (500 ms), and then the hERG peak current value obtained during the ramp phase was measured when the voltage was lowered to −80 mV over 100 ms. The protocol was applied at 5-second intervals for 5 minutes for each concentration.
SyncroPatch software (manufactured by Nanion) was used for data analysis. Four concentrations were applied incrementally for each test substance, and the average hERG Peak current value obtained from the last three stimuli of each applied concentration was used as the evaluation data. The IC50 value was calculated from the inhibition rate of the current at each concentration of each test substance relative to the pre-application value using Hill's equation (Hill equation) using the relevant software.
The same experiments were also performed using the example compounds described in WO 2023/145804 as comparative example compounds 1-4.

[3] = [3H]-L-phenylalanine uptake, radioactivity after 100 to 200 min
[4] = comparative example compounds of WO 2023/145804, read-out: hERG inhibition IC50

T2 sequence (Q12809 whole entry): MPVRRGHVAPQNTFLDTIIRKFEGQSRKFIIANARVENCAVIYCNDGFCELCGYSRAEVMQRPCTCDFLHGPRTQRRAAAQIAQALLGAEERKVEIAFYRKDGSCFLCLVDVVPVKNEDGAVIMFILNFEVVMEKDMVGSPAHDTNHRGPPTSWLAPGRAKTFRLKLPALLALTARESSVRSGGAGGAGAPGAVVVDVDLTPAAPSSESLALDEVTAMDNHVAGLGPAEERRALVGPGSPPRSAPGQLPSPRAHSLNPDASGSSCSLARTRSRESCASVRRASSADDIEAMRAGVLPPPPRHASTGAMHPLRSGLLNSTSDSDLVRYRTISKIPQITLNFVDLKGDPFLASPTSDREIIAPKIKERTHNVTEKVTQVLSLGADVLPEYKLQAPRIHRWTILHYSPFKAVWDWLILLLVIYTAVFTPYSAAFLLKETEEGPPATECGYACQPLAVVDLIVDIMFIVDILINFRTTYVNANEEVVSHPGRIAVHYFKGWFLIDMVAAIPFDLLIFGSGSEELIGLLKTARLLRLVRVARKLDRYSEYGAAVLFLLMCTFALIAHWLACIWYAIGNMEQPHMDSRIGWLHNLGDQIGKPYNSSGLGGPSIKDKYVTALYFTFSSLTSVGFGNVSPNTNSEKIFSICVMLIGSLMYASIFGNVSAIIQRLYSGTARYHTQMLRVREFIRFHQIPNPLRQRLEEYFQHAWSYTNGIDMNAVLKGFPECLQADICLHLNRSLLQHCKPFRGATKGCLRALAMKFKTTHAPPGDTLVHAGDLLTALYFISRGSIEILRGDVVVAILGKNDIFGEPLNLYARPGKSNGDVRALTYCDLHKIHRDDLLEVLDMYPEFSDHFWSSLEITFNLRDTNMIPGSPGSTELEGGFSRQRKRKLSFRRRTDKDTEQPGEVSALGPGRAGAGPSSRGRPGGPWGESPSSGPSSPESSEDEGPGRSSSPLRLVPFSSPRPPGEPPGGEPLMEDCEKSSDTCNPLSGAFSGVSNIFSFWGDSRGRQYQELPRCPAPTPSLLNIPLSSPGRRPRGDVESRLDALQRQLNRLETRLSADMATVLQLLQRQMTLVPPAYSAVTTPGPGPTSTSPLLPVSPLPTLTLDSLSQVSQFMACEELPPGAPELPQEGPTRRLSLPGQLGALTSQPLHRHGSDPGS

Row | pIC50 [1, 3] | pIC50 ([1]; phenylalanine uptake) | SMILES | pIC50 ([2]; read-out: hERG IC50) | pIC50 [2, 4]
1 | 6.82 | – | O=C(O)Cc1cc(F)c2c(c1)CCN(C(=O)CNC(=O)/C=C/c1ccc(C(F)(F)F)cc1)C2 [I-143] | < 4.52 | –
2 | 6.99 | – | O=C(O)Cc1ccc2c(c1)CCN(C(=O)CNC(=O)/C=C/c1ccc(S(F)(F)(F)(F)F)cc1)C2 [I-190] | < 4.52 | –
3 | – | – | C[C@H]1CN(C(=O)CNC(=O)/C=C/c2ccc(C(F)(F)F)cc2F)[C@@H](c2ccccc2)CN1CCCC(=O)O [I-252] | < 4.52 | –
4 | 7.30 | – | O=C(O)CCCN1CCN(C(=O)CNC(=O)/C=C/c2ccc(C(F)(F)F)cc2F)C(c2cccc(Br)c2)C1 (racemic) [I-234, 4-[3-(3-bromophenyl)-4-[2-[[(E)-3-[2-fluoro-4-(trifluoromethyl)phenyl]prop-2-enoyl]amino]acetyl]piperazin-1-yl]butanoic acid] | < 4.52 | –
5 | – | – | C[C@@H]1CN(CCCC(=O)O)[C@@H](C)CN1C(=O)CNC(=O)/C=C/c1ccc(C(F)(F)F)cc1F [I-235] | < 4.52 | –
6 | 6.91 | – | O=C(O)Cc1cc2c(cc1F)CN(C(=O)CNC(=O)/C=C/c1ccc(C(F)(F)F)cc1)CC2 [I-180] | < 4.52 | –
7 | 6.22 | – | O=C(O)CCCN1CCN(C(=O)CNC(=O)/C=C/c2ccc(C(F)(F)F)cc2F)C(c2ccccc2Cl)C1 (centres unmarked) [I-233] | < 4.52 | –
8 | 6.90 | – | O=C(O)Cc1ccc2c(c1)CCN(C(=O)CNC(=O)/C=C/c1ccc(Br)cc1)C2 [I-184] | < 4.52 | –
9 | 7.52 | – | O=C(O)CCCN1CCN(C(=O)CNC(=O)/C=C/c2ccc(C(F)(F)F)cc2F)[C@@H](c2ccc(Br)cc2)C1 [I-232] | 4.71 | –
10 | 6.68 | – | N#Cc1cc(CC(=O)O)cc2c1CN(C(=O)CNC(=O)/C=C/c1ccc(C(F)(F)F)cc1)CC2 [I-148] | < 4.52 | –
11 | – | 6.75 | CC(C(=O)O)c1ccc2c(c1)CCN(C(=O)CNC(=O)/C=C/c1ccc(C(F)(F)F)cc1)C2 (single isomer, unassigned) [I-287, 2-[2-[2-[[(E)-3-[4-(trifluoromethyl)phenyl]prop-2-enoyl]amino]acetyl]-3,4-dihydro-1H-isoquinolin-6-yl]propanoic acid] | < 4.52 | –
12 | 7.07 | – | N#Cc1cc2c(cc1CC(=O)O)CCN(C(=O)CNC(=O)/C=C/c1ccc(I)cc1F)C2 [I-223] | 4.55 | –
13 | – | 5.54 | Cc1noc([C@H]2CN(CCCC(=O)O)CCN2C(=O)CNC(=O)/C=C/c2ccc(C(F)(F)F)cc2F)n1 [I-401] | < 4.52 | –
14 | 7.13 | – | O=C(O)COc1cccc2c1CCN2C(=O)CNC(=O)/C=C/c1ccc(C(F)(F)F)cc1 [I-194] | < 4.52 | –
15 | 6.32 | – | O=C(/C=C/c1ccc(C(F)(F)F)cc1)NCC(=O)N1CCc2cc(N3CCC(C(=O)O)CC3)ncc2C1 [I-173] | < 4.52 | –
16 | – | 7.52 | C[C@@H]1CN(C(=O)CNC(=O)/C=C/c2ccc(C(F)(F)F)cc2F)[C@@H](c2ccccc2)CN1CCCC(=O)O [I-261] | < 4.52 | –
17 | 6.63 | – | CC1CN(C(=O)CNC(=O)/C=C/c2ccc(C(F)(F)F)cc2F)CCN1CCCC(=O)O (centres unmarked) [I-231] | < 4.52 | –
18 | 6.78 | – | O=C(O)CSc1nc2c(s1)CN(C(=O)CNC(=O)/C=C/c1ccc(C(F)(F)F)cc1)CC2 [I-215] | < 4.52 | –
19 | – | – | O=C(/C=C/c1ccc(C(F)(F)F)cc1F)NCC(=O)N1CCCC(c2ccccc2C(=O)O)C1 (centres unmarked) [I-253] | 4.58 | –
20 | – | 6.97 | O=C(O)CCCN1CCN(C(=O)CNC(=O)/C=C/c2ccc(C(F)(F)F)cc2F)C(c2ccc(Cl)c(F)c2)C1 (centres unmarked) [I-257] | 4.53 | –
21 | 6.84 | – | O=C(O)CCc1nn2c(c1Br)CN(C(=O)CNC(=O)/C=C/c1ccc(S(F)(F)(F)(F)F)cc1)CC2 [I-153] | < 4.52 | –

Row | pIC50 [1, 3] | pIC50 ([1]; phenylalanine uptake) | SMILES | pIC50 ([2]; read-out: hERG IC50) | pIC50 [2, 4]
22 | – | 7.15 | C[C@@H]1CN(C(=O)CNC(=O)/C=C/c2ccc(C(F)(F)F)cc2F)[C@@H](c2ccc(Cl)s2)CN1CCC(=O)O [I-396] | < 4.52 | –
23 | 6.79 | – | O=C(O)CCN1CCN(C(=O)CNC(=O)/C=C/c2ccc(C(F)(F)F)cc2F)C(c2ccccc2)C1 (centres unmarked) [I-241] | < 4.52 | –
24 | – | – | O=C(/C=C/c1ccc(C(F)(F)F)cc1)NCC(=O)N1CCNCC1 [Comparative Example compound 2, reference compound] | – | 5.06
25 | – | – | CN1CCN(C(=O)CNC(=O)/C=C/c2ccc(C(F)(F)F)cc2)C(c2ccccc2)C1 (centres unmarked) [Comparative Example compound 1, reference compound] | – | 5.68
26 | – | 7.21 | C[C@@H]1CN(C(=O)CNC(=O)/C=C/c2ccc(C(F)(F)F)cc2F)[C@@H](c2cccc(F)c2)CN1CCCC(=O)O [I-340] | < 4.52 | –
27 | – | – | O=C(O)CCCN1CCN(C(=O)CNC(=O)/C=C/c2ccc(C(F)(F)F)cc2F)CC1C(F)(F)F (centres unmarked) [I-198] | < 4.52 | –
28 | – | 5.77 | O=C(O)CCCN1C[C@H](c2ccccc2)N(C(=O)CNC(=O)/C=C/c2ccc(C(F)(F)F)cc2F)CC12CC2 [I-341] | < 4.52 | –
29 | 6.99 | – | N#Cc1cc(CC(=O)O)cc2c1CN(C(=O)CNC(=O)/C=C/c1ccc(I)cc1F)CC2 [I-157] | < 4.52 | –
30 | – | – | O=C(/C=C/c1ccc(C(F)(F)F)cc1)NCC(=O)N1CCc2cc(C3(C(=O)O)CC3)ccc2C1 [I-166] | < 4.52 | –
31 | – | – | O=C(O)CCCN1CCN(C(=O)CNC(=O)/C=C/c2ccc(C(F)(F)F)cc2F)CC1C1CCCCC1 (centres unmarked) [I-271] | 4.79 | –
32 | – | – | CN1CCN(C(=O)CNC(=O)/C=C/c2ccc(C(F)(F)F)cc2)CC1 [Comparative Example compound 3, reference compound] | – | 5.44
33 | – | – | O=C(O)CCCN1CCN(C(=O)CNC(=O)/C=C/c2ccc(C(F)(F)F)cc2F)C(c2ccc(Cl)c(F)c2)C1 (centres unmarked) [I-267] | < 4.52 | –
34 | – | – | COc1cc2c(cc1CC(=O)O)CCN(C(=O)CNC(=O)/C=C/c1ccc(C(F)(F)F)cc1)C2 [I-176] | < 4.52 | –
35 | – | – | O=C(/C=C/c1ccc(C(F)(F)F)cc1)NCC(=O)N1CCc2ncsc2C1 [Comparative Example compound 4, reference compound] | – | 5.22
36 | – | – | O=C(O)Cc1cc2c(s1)CCN(C(=O)CNC(=O)/C=C/c1ccc(C(F)(F)F)cc1)C2 [I-178] | < 4.52 | –
37 | – | 7.29 | O=C(O)CCCN1CCN(C(=O)CNC(=O)/C=C/c2ccc(C(F)(F)F)cc2F)C(c2ccc(Cl)cc2)C1 (single isomer, unassigned) [I-295, 4-[3-(4-chlorophenyl)-4-[2-[[(E)-3-[2-fluoro-4-(trifluoromethyl)phenyl]prop-2-enoyl]amino]acetyl]piperazin-1-yl]butanoic acid] | – | –
38 | – | 5.54 | O=C(/C=C/c1ccc(C(F)(F)F)cc1F)NCC(=O)N1CCCC(N2CC[C@H](C(=O)O)C2)C1 (some centres unmarked) [I-360] | – | –
39 | – | 7.68 | CN(C)C(=O)Cc1cc(Cl)c2c(c1)CCN(C(=O)CNC(=O)/C=C/c1ccc(C(F)(F)F)cc1F)C2 [I-279] | – | –
40 | 6.18 | – | CCC(F)(F)c1ccc(/C=C/C(=O)NCC(=O)N2CCc3cc(CC(=O)O)ccc3C2)cc1 [I-227] | – | –
41 | 6.59 | – | Cc1nn(CC(=O)O)c2c1CN(C(=O)CNC(=O)/C=C/c1ccc(C(F)(F)F)cc1)CC2 [I-219] | – | –
42 | – | 6.91 | C[C@@H]1CN(C(=O)CNC(=O)/C=C/c2ccc(C(F)(F)F)cc2F)[C@@H](c2ccccc2)CN1CCC(C)(C)C(=O)O [I-344] | – | –
